Series [1] concerns the target T1, Brd4 bromodomain 1 (Homo sapiens, UniProt O60885).
T1 construct: made in house; host or cells: E. coli BL21(DE3)
The series can be described thus: Inhibition of binding of tetra-acetylated histone H4 and Brd4 bromodomain 1 by TR-FRET. The conditions noted are these: His-tagged bromodomain 200 nM, biotinylated tetra-acetylated histone H4 peptide 25-50 nM, 2 hours at room temperature. (In general: Time-resolved FRET reads energy transfer from a long-lived donor to a nearby acceptor.)

One may read the melting point as the temperature of the solid-liquid transition. `O=c1[nH]c(-c2ccc3c(c2)OCCO3)nc2ccccc12` [Example 31, 2-(2,3-dihydrobenzo[b][1,4]dioxin-6-yl)quinazolin-4(3H)-one]: the melting point is 267 to 268 °C (dec.). Besides, the “FRET activity (<50 uM)” value in series [1] was “Inactive”.
As to `COc1cc(OC)c2c(=O)[nH]c(-c3ccc(N(C)C)c4ccccc34)nc2c1` [Example 32, 2-(4-(dimethylamino)naphthalen-1-yl)-5,7-dimethoxyquinazolin-4(3H)-one], the melting point is 269 to 271 °C. The “FRET activity (<50 uM)” value in series [1] was “Inactive”.
Take `COc1cc(OC)c2c(=O)[nH]c(-c3ccc(OCC(N)=O)cc3)nc2c1` [Example 33, 2-(4-(5,7-dimethoxy-4-oxo-3,4-dihydroquinazolin-2-yl)phenoxy)acetamide]: the melting point is 309 to 311 °C. Moreover, in series [1], the “FRET activity (<50 uM)” value is recorded as “Active”.
In the same order, the values of `O=C(O)COc1ccc(-c2nc3ccccc3c(=O)[nH]2)cc1` [Example 34, 2-(4-(4-oxo-3,4-dihydroquinazolin-2-yl)phenoxy)acetic acid] are 285 to 287 °C and “Inactive”.
The corresponding values for `CN(C)c1ccc(-c2nc3ccccc3c(=O)[nH]2)c2ccccc12` [Example 35, 2-(4-(dimethylamino)naphthalen-1-yl)quinazolin-4(3H)-one] are 224 to 226 °C and “Inactive”.
In the case of `NC(=O)COc1ccc(-c2nc3ccccc3c(=O)[nH]2)cc1` [Example 36, 2-(4-(4-oxo-3,4-dihydroquinazolin-2-yl)phenoxy)acetamide], the melting point was in the range of 277.5 to 278.5 °C. In series [1], the “FRET activity (<50 uM)” value is “Inactive”.
As to `COc1cc(OC)c2c(=O)[nH]c(-c3ccc4c(c3)OCCO4)nc2c1` [Example 37, 2-(2,3-dihydrobenzo[b][1,4]dioxin-6-yl)-5,7-dimethoxyquinazolin-4(3H)-one], the melting point was in the range of 307.5 to 309.6 °C. Also, the “FRET activity (<50 uM)” value in series [1] is “Active”.
The corresponding values for `O=c1[nH]c(-c2ccc(N(CCO)CCO)cc2)nc2ccccc12` [Example 40, 2-(4-(bis(2-hydroxyethyl)amino)phenyl)quinazolin-4(3H)-one] are 228 to 230 °C and “Inactive”.
The corresponding values for `COc1cc(OC)c2c(=O)[nH]c(-c3ccc(N(CCO)CCO)cc3)nc2c1` [Example 41, 2-(4-(bis(2-hydroxyethyl)amino)phenyl)-5,7-dimethoxyquinazolin-4(3H)-one] are 249 to 251 °C and “Active”.
The corresponding values for `COc1cc2nc(-c3ccc4c(c3)OCCO4)[nH]c(=O)c2cc1OC` [Example 43, 2-(2,3-dihydrobenzo[b][1,4]dioxin-6-yl)-6,7-dimethoxyquinazolin-4(3H)-one] are 316.4 to 318.2 °C and “Inactive”.
Turning to `COc1cc(OC)c2c(=O)[nH]c(-c3cc(C)c(OCCN4CCOCC4)c(C)c3)cc2n1` [Example 45, 7-(3,5-dimethyl-4-(2-morpholinoethoxy)phenyl)-2,4-dimethoxy-1,6-naphthyridin-5(6H)-one], the melting point was in the range of 212.5 to 212.9 °C. Further, in series [1], the “FRET activity (<50 uM)” value is “Active”.
In turn, `COc1cc2nc(-c3cc(C)c(O)c(C)c3)[nH]c(=O)c2cc1OC` [Example 47, 2-(4-hydroxy-3,5-dimethylphenyl)-6,7-dimethoxyquinazolin-4(3H)-one] showed a melting point greater than 300 °C. Besides, the “FRET activity (<50 uM)” value in series [1] is “Active”.
In the same order, the values of `COc1cc(OC)c2c(=O)[nH]c(-c3ccc(CCC(=O)O)cc3)nc2c1` [Example 48, 3-(4-(5,7-dimethoxy-4-oxo-3,4-dihydroquinazolin-2-yl)phenyl)propanoic acid] are 250.6 to 251.1 °C and “Active”.
The corresponding values for `CC(=O)Nc1ccc2nc(-c3cc(C)c(O)c(C)c3)[nH]c(=O)c2c1` [Example 49, N-(2-(4-hydroxy-3,5-dimethylphenyl)-4-oxo-3,4-dihydroquinazolin-6-yl)acetamide] are 336.5 °C (dec.) and “Inactive”.
The corresponding values for `COc1cc2nc(-c3cc(C)c(OCC(N)=O)c(C)c3)[nH]c(=O)c2cc1OC` [Example 50, 2-(4-(6,7-dimethoxy-4-oxo-3,4-dihydroquinazolin-2-yl)-2,6-dimethylphenoxy)acetamide] are 354 to 356 °C and “Inactive”.
As for `COc1cc(OC)c2c(=O)[nH]c(-c3ccc(OCCO)c(Cl)c3)nc2c1` [Example 51, 2-(3-chloro-4-(2-hydroxyethoxy)phenyl)-5,7-dimethoxyquinazolin-4(3H)-one], the melting point was 287 to 288 °C (dec.). For the same molecule, the “FRET activity (<50 uM)” value in series [1] is recorded as “Inactive”.
In the same order, the values of `COc1cc2nc(-c3cc(C)c(OCCO)c(C)c3)[nH]c(=O)c2cc1OC` [Example 53, 2-(4-(2-hydroxyethoxy)-3,5-dimethylphenyl)-6,7-dimethoxyquinazolin-4(3H)-one] are greater than 300 °C and “Inactive”.
In the same order, the values of `COc1cc(OC)c2c(=O)[nH]c(-c3cc(C)c(NC(=O)CO)c(C)c3)nc2c1` [Example 55, N-(4-(5,7-dimethoxy-4-oxo-3,4-dihydroquinazolin-2-yl)-2,6-dimethylphenyl)-2-hydroxyacetamide] are 190 to 192 °C and “Active”.
As to `COc1cc(OC)c2c(=O)[nH]c(-c3cc(C)c(OC)c(C)c3)cc2n1` [Example 58, 2,4-dimethoxy-7-(4-methoxy-3,5-dimethylphenyl)-1,6-naphthyridin-5(6H)-one], the melting point is 262 to 263 °C (dec.). Moreover, in series [1], the “FRET activity (<50 uM)” value is recorded as “Active”.
For the molecule `COc1cc(OC)c2c(=O)[nH]c(-c3ccc(NC(=O)CO)cc3)nc2c1` [Example 60, N-(4-(5,7-dimethoxy-4-oxo-3,4-dihydroquinazolin-2-yl)phenyl)-2-hydroxyacetamide], the melting point lay within 318 to 319 °C. In addition, the “FRET activity (<50 uM)” value in series [1] is given as “Inactive”.
The molecule `COc1cc(OC)c2c(=O)[nH]c(-c3cc(C)c(O)c(C)c3)nc2n1` [Example 63, 2-(4-hydroxy-3,5-dimethylphenyl)-5,7-dimethoxypyrido[2,3-d]pyrimidin-4(3H)-one] came in with a melting point of 297 to 299 °C. The “FRET activity (<50 uM)” value in series [1] is “Active”.
In the same order, the values of `COc1cc(OC)c2c(=O)[nH]c(-c3ccc(OC)c(CN4CCOCC4)c3)nc2c1` [Example 64, 5,7-dimethoxy-2-(4-methoxy-3-(morpholinomethyl)phenyl)quinazolin-4(3H)-one] are 282.7 to 284.5 °C and “Active”.
The molecule `COc1cc(OC)c2c(=O)[nH]c(-c3cc(C)c(OCCO)c(C)c3)nc2n1` [Example 65, 2-(4-(2-hydroxyethoxy)-3,5-dimethylphenyl)-5,7-dimethoxypyrido[2,3-d]pyrimidin-4(3H)-one] showed a melting point of 255 to 256 °C. For the same molecule, in series [1], the “FRET activity (<50 uM)” value was “Active”.
The corresponding values for `COc1cc(OC)c2c(=O)nc(-c3cc(C)c(O)c(C)c3)n(C)c2c1` [Example 66, 2-(4-hydroxy-3,5-dimethylphenyl)-5,7-dimethoxy-1-methylquinazolin-4(1H)-one] are 188.5 to 189.1 °C and “Active”.

(Values after patent US20130281397A1, “TREATMENT OF DISEASES BY EPIGENETIC REGULATION” (RVX Therapeutics Inc., priority 2012, published 2013).)
